Source: patent US20240024281A1, “METHODS AND COMPOSITIONS FOR TREATING LIVER DISEASES” (INSTITUT NATIONAL DE LA SANTÉ ET DE LA RECHERCHE MÉDICALE, priority 2018, published 2024)
“Also recorded” adds a separate entry of the source. Blank lines part the entries; values can stand above or below the compound they belong to.

How the values were obtained:
[1] = tested on: liver cancer cell (HepG2, Huh7 and Hep3B); assay: Liver cancer cell proliferation; format: cell-based; conditions: for liver cancer cell proliferation and apoptosis, alone and co-treated with sorafenib (confirmation of the STF-083010 data): data not shown
Protocol: (§1) FIG. 3A-B: Inhibition of IRE1α RNase signalling with STF potentiates the effectiveness of Sorafenib in reducing liver cancer cell proliferation and inducing apoptosis. Effect of Sorafenib (SORA, 5 μM), STF-083010 (STF, 60 μM) and their combination on (A) liver cancer cell proliferation (HepG2, Huh7 and Hep3B) and on (B) inducing apoptosis. STF-083010 was added one hour before SORA. Stimulations were performed during 24 hours. $p<0.05 when comparing treated to untreated counterpart. Results are expressed as mean with SEM *p<0.05, **p<0.01, ***p<0.001 and ****p<0.0001.
(§2) FIG. 4: Hyperactive IRE1α RNase triggers secretion of pro-inflammatory markers. Effect of Sorafenib (SORA, […]), Ac-YVAD-CMK (YVAD, 25 μM) and their combination on liver cancer cell proliferation (HepG2) and on inducing apoptosis. Ac-YVAD-CMK (YVAD) was added one hour before SORA. Stimulations were performed during 24 hours. $p<0.05 when comparing treated to untreated counterpart. Results are expressed as mean with SEM *p<0.05, **p<0.01, ***p<0.001 and ****p<0.0001.
FIG. 5A-B: Co-treatment enhancing apoptosis via IRE1α kinase activity. Effect of Sorafenib (SORA, 5 μM), STF-083010 (STF, 60 μM) and their combination on HepG2 cells proliferation with or without (A) JNK inhibitor SP600125 (SP, 50 μM) pre-treatment or (B) Necrostatin (Nec-1, 50 μM) pre-treatment. Stimulations were performed during 24 hours. $p<0.05 when comparing treated to untreated counterpart. Results are expressed as mean with SEM *p<0.05, **p<0.01, ***p<0.001 and ****p<0.0001.

[2] = tested on: xenograft HepG2 cells; assay: Xenograft mouse model of HCC, tumor volume; format: in vivo, mice
Protocol: FIG. 6A-B: Inhibition of IRE1α RNase activity with STF potentiates Sorafenib action in vivo. (A) Protocol timeline for Sorafenib (30 mg/kg i.p. daily) and/or STF-083010 (30 mg/kg i.p. twice a week) injections in mice with xenograft HepG2 cells. (B) Effect of SORA, STF, and their combination on tumor volume in mice. $p<0.05 when comparing treated to untreated counterpart. Results are expressed as mean with SEM *p<0.05.

[3] = biological target: T1, IRE1α RNase activity (Mus musculus, UniProt Q9EQY0); assay: IRE1α RNase signaling (XBP1 mRNA, sXBP1 protein) in primary hepatocytes from BI-1−/− or WT mice; format: cell-based; conditions: BI-1−/− primary hepatocytes; STF-083010 60 μM
T1 construct: Hepatocytes from mouse liver were isolated by a two-step collagenase procedure; endogenous in cells; host or cells: primary hepatocytes isolated from livers of BI-1−/− and WT mice
T1 sequence (Q9EQY0 21-977): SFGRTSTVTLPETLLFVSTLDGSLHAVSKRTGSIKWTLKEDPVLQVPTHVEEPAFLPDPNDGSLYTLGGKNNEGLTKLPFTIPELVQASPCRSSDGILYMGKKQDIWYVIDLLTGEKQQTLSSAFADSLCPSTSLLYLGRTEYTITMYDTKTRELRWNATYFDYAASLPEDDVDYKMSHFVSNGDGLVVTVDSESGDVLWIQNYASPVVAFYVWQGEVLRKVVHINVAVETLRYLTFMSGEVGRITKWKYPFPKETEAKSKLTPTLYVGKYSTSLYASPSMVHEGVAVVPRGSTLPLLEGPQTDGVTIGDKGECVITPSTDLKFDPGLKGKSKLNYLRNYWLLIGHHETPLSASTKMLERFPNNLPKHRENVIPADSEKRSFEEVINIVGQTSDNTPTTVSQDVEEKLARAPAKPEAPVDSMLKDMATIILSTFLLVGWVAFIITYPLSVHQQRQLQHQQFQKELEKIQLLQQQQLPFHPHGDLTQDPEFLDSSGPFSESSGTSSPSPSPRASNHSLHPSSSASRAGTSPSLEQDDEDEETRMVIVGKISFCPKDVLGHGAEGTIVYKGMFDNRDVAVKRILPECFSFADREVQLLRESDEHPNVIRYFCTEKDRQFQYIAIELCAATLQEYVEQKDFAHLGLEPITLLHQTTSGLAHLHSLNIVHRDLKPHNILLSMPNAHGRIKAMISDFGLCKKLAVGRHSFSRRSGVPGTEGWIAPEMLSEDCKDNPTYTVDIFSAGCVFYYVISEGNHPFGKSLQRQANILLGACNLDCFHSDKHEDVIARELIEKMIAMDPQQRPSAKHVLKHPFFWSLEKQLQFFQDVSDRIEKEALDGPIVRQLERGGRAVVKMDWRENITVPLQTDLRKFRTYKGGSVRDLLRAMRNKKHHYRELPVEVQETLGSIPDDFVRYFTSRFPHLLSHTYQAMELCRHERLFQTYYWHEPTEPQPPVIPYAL
Protocol: (§3) Total RNA was extracted from liver tissue or cells then reverse-transcribed as previously described15. Real-time quantitative PCR was performed using the ABI PRISM 7500/Step-One Fast Real Time PCR System following the manufacturer's protocols in C3M genomics facilities. See the Supporting Methods for TaqMan gene expression assays.
(§4) Total protein was isolated from snap-frozen livers or primary hepatocytes homogenized in detergent-containing buffer, normalized for protein content (40 μg/tissue sample and 20 μg/cell sample), and analyzed by SDS-PAGE (8-15% gels) immunoblotting as previously described15. Western blot analyses were performed using antibodies described in Supporting Methods and detected with an enhanced chemiluminescence method (Amersham Biosciences, Piscataway, NJ, USA). Immunoblots were scanned and the signals were quantified using ImageJ software.
Hepatocytes from mouse liver were isolated by a two-step collagenase procedure, as we described18,23 and cultured in media detailed in Supporting Methods. […] After 48 hr of transfection, cells were treated with TM (1 μg/ml) or LPS (100 ng/ml) for the determined times. […] Cell viability was determined by a colorimetric assay (MTT) detailed in Supporting Methods. […]

[4] = tested on: NLRP3 inflammasome; assay: Caspase-11 and NLRP3 overexpression in LPS-treated primary hepatocytes; format: cell-based, mouse; conditions: LPS-treated BI-1−/− primary hepatocytes; STF-083010 60 μM
Protocol: as §4
Hepatocytes from mouse liver were isolated by a two-step collagenase procedure, as we described18,23 and cultured in media detailed in Supporting Methods. When indicated, primary hepatocytes were transfected with Stealth siRNA (targeting BI-1, IRE1α, XBP1 or CHOP with the corresponding control of Low or Medium CG) at 30 nM using Lipofectamine RNAiMAX (ThermoFisher Scientific, Courtaboeuf, France) according to the manufacturer's instructions. After 48 hr of transfection, cells were treated with TM (1 μg/ml) or LPS (100 ng/ml) for the determined times. Primary hepatocytes isolated from the livers of BI-1−/− and WT mice were treated with TM or LPS in the presence or absence of STF-083010 (60 μM) or Ac-YVAD-CMK (25 μM). Cell viability was determined by a colorimetric assay (MTT) detailed in Supporting Methods. […]

[5] = tested on: primary hepatocytes isolated from the livers of BI-1−/− and WT mice; assay: Primary hepatocyte viability (MTT) with TM or LPS; format: cell-based, mouse
Protocol: Hepatocytes from mouse liver were isolated by a two-step collagenase procedure, as we described18,23 and cultured in media detailed in Supporting Methods. When indicated, primary hepatocytes were transfected with Stealth siRNA (targeting BI-1, IRE1α, XBP1 or CHOP with the corresponding control of Low or Medium CG) at 30 nM using Lipofectamine RNAiMAX (ThermoFisher Scientific, Courtaboeuf, France) according to the manufacturer's instructions. After 48 hr of transfection, cells were treated with TM (1 μg/ml) or LPS (100 ng/ml) for the determined times. Primary hepatocytes isolated from the livers of BI-1−/− and WT mice were treated with TM or LPS in the presence or absence of STF-083010 (60 μM) or Ac-YVAD-CMK (25 μM). Cell viability was determined by a colorimetric assay (MTT) detailed in Supporting Methods. Results are presented as a percentage of the control values.

[6] = tested on: HFD-fed BI-1−/− mice; assay: HFD- or ND-fed BI-1+/+ and BI-1−/− mice treated with STF-083010 (NASH development); format: in vivo, mouse
Protocol: FIG. 1A-C: Early Into HFD feeding, limiting the ER stress response by inhibiting IRE1α RNase activity protects from steatosis and hyperglycemia. Starting 2.5 months after HFD feeding, BI-1+/+ and BI-1−/− mice were treated with STF-083010 (30 mg/kg) or vehicle (NT, Kolliphor 16%) twice a week for 2 weeks before sacrifice. (A) Relative liver triglyceride levels.
(A) Protocol timeline for vehicle (NT, Kolliphor 16%) or STF-083010 (30 mg/kg) injections in HFD-fed BI-1+/+ and BI-1−/− mice. (B) qPCR analysis of hepatic genes involved in lipid synthesis and metabolism (n=3). […] (C) Blood glucose concentrations in fed BI-1+/+ and BI-1−/− mice (n=6).
All animal procedures were conducted in compliance with French guidelines for the humane care and use of experimental animals. Male mice with targeted disruption of the BI-1 gene representing BI-1+/+(WT) and BI-1−/− littermates on a C57BL/6 background were obtained from Dr. John C. Reed at the Stanford-Burnham Institute for Medical Research (La Jolla, CA, USA)17,18. Experiments conducted with 12-week old mice included: 1) Mice injected intraperitoneally with TM (1 mg/kg) or vehicle and sacrificed 48 hr after treatment (unless otherwise indicated), 2) Animals either fed a ND (A04—Safe Diet, Augy, France) or HFD (60 kJ % fat, D12492-ssniff, Soest, Germany) for up to 9 months, 3) Towards the end of a 3-month ND or HFD, mice were injected with STF-083010 (30 mg/kg) or vehicle twice a week for 2 weeks before sacrifice. Mice were housed in a controlled environment with 12 hr light/dark cycles with water available ad libitum.
Liver tissue specimens were fixed in 10% buffered formalin, embedded in paraffin, sectioned (5 μm thick) and stained with either H&E, Masson's trichrome, MPO or TUNEL (Roche Molecular Biochemicals, Meylan, France). Specimens were evaluated by microscopy in a blinded manner by a liver pathologist.
as §3, §4
Serum AST and ALT levels were determined using a standardized UV test after activation with pyridoxal-phosphate and serum triglyceride levels were determined by standardized enzymatic colorimetric assay (Roche-Hitachi analyzer Cobas 8000, Meylan, France). Hepatic triglyceride content was measured using a Triglycerides FS 10′ kit (DiaSys, Holzheim, Germany). Cytokines were quantitatively measured by flow cytometry as described15.

[7] = tested on: HCC cell lines; assay: Apoptosis induction in HCC cell lines; format: cell-based; conditions: 24 hours
Protocol: as §1, §2

[8] = BI-1−/− mice after 3 months of HFD
[9] = BI-1−/− mice, twice a week for 2 weeks towards the end of a 3-month HFD

Compound: COc1cc2c(C)c(CC(=O)N3CCOCC3)c(=O)oc2c(C=O)c1O [MKC6688]
- liver cancer cell proliferation and apoptosis, alone and co-treated with sorafenib (confirmation of the STF-083010 data) [1]: confirmed
- sorafenib-mediated tumor suppression (confirmation of the STF-083010 data) ([2]; data not shown): confirmed

- XBP1 mRNA levels [3]: decrease
- sXBP1 protein [3]: decrease
- overexpression of active caspase-11 and NLRP3 [4]: limited
- appearance of the liver ([6]; ND-fed mice): did not alter
Compound: O=S(=O)(N=Cc1c(O)ccc2ccccc12)c1cccs1 [STF-083010, N-[(2-Hydroxy-1-naphthalenyl)methylene]-2-thiophenesulfonamide]
- viability of WT hepatocytes ([5]; STF-083010 alone, 60 μM): compromised the viability
- viability of BI-1−/− hepatocytes ([5]; co-treated with TM and LPS, STF-083010 60 μM): improved the viability
- NASH development ([6]; BI-1-deficient mice, HFD): rescuing from NASH; also recorded: reverses the propensity
- histological signs of inflammation and grade-3 steatosis ([6]; BI-1−/− HFD mice, 30 mg/kg twice a week for 2 weeks): suppressed
- activation of caspase-1/-11 and NLRP3 proteins ([6]; BI-1−/− HFD-fed mice): counteracted the activation
- mRNA levels of NLRP3 inflammasome and pro-inflammatory response components ([6]; BI-1−/− HFD-fed mice): normalized
- collagen accumulation with cellular infiltration [6, 8]: prevented
- hepatic Col6a3 upregulation [6, 8]: significantly limited
- liver discoloration (macroscopic) ([6]; BI-1−/− mice fed a HFD for 3 months, 30 mg/kg twice a week for 2 weeks): prevented
- IRE1a endoribonuclease activity in vivo [6, 9]: effectively counteracted
- glucose tolerance [6, 9]: improving
- mRNA levels of metabolic master regulators (SREBP1, FASN and c-JUN) ([6]; HFD-fed BI-1−/− mice, liver qPCR, FIG. 2B): within normal mRNA levels
- lipid droplet diameter in hepatocytes ([6]; HFD-fed BI-1−/− mice, 30 mg/kg twice a week for 2 weeks): from massive to average size
- liver triglyceride content ([6]; HFD-fed BI-1−/− mice, 30 mg/kg twice a week for 2 weeks, FIG. 1A): Normalized
- liver injury ([6]; HFD-fed mice, both genotypes): protected from liver injury
- blood glucose concentrations ([6]; HFD-fed mice, FIG. 2C): normalization
- MPO-positive cells ([6]; STF-083010-treated versus untreated mice fed a HFD): significant decrease
- increase in BI-1 mRNA levels ([6]; WT mice fed a HFD, FIG. 1C): 15%
- CHOP/GRP78 ratio, protein and mRNA levels ([6]; livers from BI-1−/− mice, HFD): reduced
- expression of IRE1α RNase target sXBP1, protein and mRNA levels ([6]; livers from BI-1−/− mice, HFD): reduced
- liver cancer cell proliferation ([1]; HepG2, Huh7 and Hep3B, 60 μM alone, 24 hours, FIG. 3A): reduces
- effectiveness of sorafenib in reducing liver cancer cell proliferation ([1]; co-treated with Sorafenib 5 μM, STF 60 μM added one hour before, 24 hours, FIG. 3A): improves their effectiveness
- effectiveness of sorafenib in inducing apoptosis ([7]; HCC cell lines, co-treated with Sorafenib 5 μM, STF 60 μM, FIG. 3B): improves their effectiveness
- sorafenib-mediated tumor suppression (tumor volume) ([2]; STF-083010 30 mg/kg i.p. twice a week with Sorafenib 30 mg/kg i.p. daily, FIG. 6B): increased

Compound: Ac-YVAD-CMK
- effectiveness of sorafenib in reducing liver cancer cell proliferation ([1]; HepG2, YVAD 25 μM added one hour before Sorafenib, 24 hours, not more efficiently than SFT-083010, FIG. 4): enhances
- effectiveness of sorafenib in inducing apoptosis ([7]; HepG2, YVAD 25 μM added one hour before Sorafenib, not more efficiently than SFT-083010, FIG. 4): enhances

Compound: Cc1cc(=O)oc2c(C=O)c(O)ccc12 [4μ8c]
- liver cancer cell proliferation and apoptosis, alone and co-treated with sorafenib (confirmation of the STF-083010 data) [1]: confirmed

Compound: CN1C(=O)C(Cc2c[nH]c3ccccc23)NC1=S (stereo not shown) [Necrostatin-1]
- effect of Sorafenib and SFT-083010 on cancer cell proliferation after pre-treatment ([1]; HepG2, 50 μM pre-treatment, Sorafenib 5 μM, STF 60 μM, 24 hours, FIGS. 5A and 5B): inhibit the effect
